The nature of one data set: ABTS antioxidant assay. The note with it: for Trolox Equivalents (μmol/μmol): IC50 compared to IC50 of trolox; for IC50: concentration causing 50% reduction in ABTS absorbance, 2 min, room temperature. How it is done:
This example illustrates how the biological data pertaining to antioxidant properties of the compounds was obtained.
The antioxidant activity of each test agent was assayed by a colorimetric assay described in the literature that utilizes 2,2′-azinobis-3-ethylbenzothiazoline-6-sulfonic acid (ABTS). ABTS has an intense blue-green color in its free radical form, but is colorless without the free radical. Free radical ABTS was generated by reacting 7 mM ABTS with 2.45 mM potassium persulfate in water for 24-48 hr at room temperature in the dark. Test agents were diluted in 50/50 phosphate buffered saline (PBS)/ethanol to a series of five concentrations, then added to a 96 well half-area plate using 50 μl per well with four wells for each agent concentration. Four control wells containing 50/50 PBS/ethanol without test agents were setup for comparison for each test agent. Trolox, a water-soluble form of vitamin E commonly employed as an antioxidant standard, was also tested in each set of experiments. The free radical ABTS solution was diluted with 50/50 PBS/ethanol to give an absorbance of 1.4 absorbance units at 734 nm, and was then added 50 μl per well to two of the four wells for each condition. The other two wells for each condition received 50 μl of 50/50 PBS/ethanol without ABTS to provide background correction absorbance readings. All dilution and plate loading operations were performed on a Packard Multiprobe II HTS automated liquid handling system. […] Readings for wells with ABTS were background corrected using the corresponding wells containing matching test agent levels without ABTS. The background corrected absorbance of each test agent concentration was then compared to the control wells without agent to determine the percent decrease in color intensity, corresponding to the percent of ABTS free radical reduction. A fit of percent absorbance decrease versus test agent concentration was then used to estimate the concentration causing a 50% reduction in absorbance, called the IC50. The test agent IC50 values were then compared to the IC50 of trolox to calculate the trolox equivalents (TE, moles of trolox needed to give the same level of antioxidant activity as one mole of test agent) for each agent. Smaller IC50 values or larger TE values indicate higher levels of antioxidant activity.

The target in data set [1] is T1, hrER-α (alpha estrogen receptor) (Homo sapiens, UniProt P03372).
T1 sequence (P03372 1-595): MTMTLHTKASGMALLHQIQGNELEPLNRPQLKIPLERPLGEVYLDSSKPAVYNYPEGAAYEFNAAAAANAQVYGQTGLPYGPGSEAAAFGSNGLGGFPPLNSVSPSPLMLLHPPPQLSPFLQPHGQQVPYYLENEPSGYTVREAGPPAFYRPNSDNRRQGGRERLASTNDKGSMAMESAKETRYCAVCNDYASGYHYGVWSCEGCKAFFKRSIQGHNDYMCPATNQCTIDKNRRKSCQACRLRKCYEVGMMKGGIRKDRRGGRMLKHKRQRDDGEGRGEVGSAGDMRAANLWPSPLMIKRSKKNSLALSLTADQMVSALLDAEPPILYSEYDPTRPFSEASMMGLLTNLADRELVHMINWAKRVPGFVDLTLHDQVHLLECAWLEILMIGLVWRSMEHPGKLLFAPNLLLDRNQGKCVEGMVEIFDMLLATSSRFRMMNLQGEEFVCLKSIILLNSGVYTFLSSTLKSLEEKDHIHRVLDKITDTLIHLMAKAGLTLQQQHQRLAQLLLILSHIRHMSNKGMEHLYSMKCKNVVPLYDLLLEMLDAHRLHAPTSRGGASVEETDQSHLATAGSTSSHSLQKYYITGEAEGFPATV
Description: ER-α competition binding assay (fluorescence anisotropy, ES2 displacement). The note with it: ERα/ES2 complex, 2 h room temperature, FIG. 9; read-out: IC50 for 50% inhibition of a standard's binding with the alpha estrogen receptor (ER-α). How it is done:
This example illustrates how the biological data pertaining to interaction of the compounds with the alpha-estrogen receptors was obtained.
A 200 μM working stock solution of GLY I was prepared from an original 10 mM DMSO stock solution. The working stock solution was serially diluted in triplicate in screening buffer to the desired concentrations. hrER-α and ES2 were added to a final concentration of 2 nM and 3 nM, respectively. Negative (ER+ES2, equivalent to 0% inhibition) and positive (free ES2, equivalent to 100% inhibition) controls in the absence of competitor were measured in duplicate. After 2 h at room temperature, the anisotropy values in each tube were measured using the Beacon 2000 system CO. The anisotropy values were converted to percent inhibition using the following formula: I%=(A0−A)/(A0−A100)×100, where I% is the percent inhibition, A0 is 0% inhibition, A100 is 100% inhibition, and A represents the observed value. Polarization values were converted to percent inhibition to make the data more intuitive to the reader and to normalize the day-to-day differences in the starting 0% inhibition polarization values. The percent inhibition versus competitor concentration curves were analyzed by nonlinear least-squares curve fitting and yielded an IC50 value (the concentration of competitor needed to displace half of the bound ligand). To compare binding affinities of the test compounds to those reported in the literature, IC50 values were converted to relative binding affinities (RBA) using E2 as a standard. The E2 RBA was set equal to 100 […].

Data set [2] concerns estrogen receptor (ERE-luciferase) in MCF7 ER-positive cells. The data set is described as follows: ERE-Luciferase assay, estrogenic and antiestrogenic activity. The class given is cell-based, human. How it is done:
Cell Culture Studies (MCF7 ER-Positive Cells)
Human cancer cell lines derived from breast (MCF7, ER-positive cells) were cultured in 75 ml culture flasks in DMEM (Invitrogen, Co.) supplemented with 10% FBS (Life Technologies, Inc., Gaithersburg, Md.), basic minimum MEM essential (50×, Invitrogen Co.) and MEM non-essential (100×, Invitrogen, Co.) amino acids, sodium pyruvate (100× Invitrogen Co.), antimicotic-antibiotic (10,000 U/mL penicillin G sodium; 10,000 μg/mL streptomycin sulphate; 25 μg/mL amphotericin B as Fungizone®), and human recombinant insulin (4 mg/mL. Invitrogen Co.). The culture flasks were maintained in a tissue culture incubator in a humidified atmosphere of 5% CO2 and 95% air at 37° C. For estrogen studies, cells were washed with PBS 3 times and grown in phenol red-free DMEM supplemented with 5% dextran-coated charcoal-treated FBS (5% CS-FBS) for 72 h before plating for each particular experiment.
Results were then assessed by using an ERE-luciferase assay. The cells were plated in 24 well plates at 5×10^5 cells/well in the same media and allowed to attach overnight. After 18 hours, cells were transfected for 5 h in serum supplemented-free DMEM with […] pGL2-ERE2X-TK-luciferase plasmid, using 6 μl of effectine (Qiagen)/μg of DNA. After 5 h the transfection medium was removed and replaced with phenol red-free DMEM supplemented with 5% CS-FBS containing vehicle, 17β-estradiol, GLY I, or 17β-estradiol plus GLY I, and incubated at 37° C. After 18 h the medium was removed, and 100 μl of lysis buffer was added per well and then incubated for 15 min at room temperature. Cell debris was pelleted by centrifugation at 15000×g for 5 min. cell extracts were normalized for protein concentration using reagent according to the protocol supplied by the manufacturer (Bio-Rad Laboratories, Inc., Hercules, Calif.). Luciferase activity for the cell extracts was determined using Luciferase substrate (Promega Corp.) in an Autoluminat Plus luminometer.

The next data set has as its system MCF7 cells. The data set is described as follows: Growth inhibition assay (NCI method, sulforhodamine B), MCF7. The note with it: MCF7; human breast cancer cells, 48 hr, 10% serum; read-out: GI50 (μM) MCF7. The class given is cell-based, human.
The test system of another data set is MCF12A cells. Description: Growth inhibition assay (NCI method, sulforhodamine B), MCF12A. The data set is classed as cell-based, human. The note with it: MCF-12A; non-cancerous 'normal' human breast epithelial cells, 48 hr; read-out: GI50 (μM) MCF12A.
The next data set has as its system NCI/ADR-RES cells. Description: Growth inhibition assay (NCI method, sulforhodamine B), NCI/ADR-RES. The data set is classed as cell-based, human. The note with it: Homo sapiens, NCI/ADR-RES; multidrug resistant cell line, 48 hr; read-out: GI50 (μM) NCI/ADR-RES.
The nature of data set [3]: pH stability study by HPLC. The class given is physicochemical. The source says:
This instability could derive by formation of a quinone-methide from the now unprotected ‘Southern’ ring's phenolic hydroxyl-group. Thus, mildly acidic reagents that might be used for de-protection were explored. In the end, NEt3.3 HF (see, e.g., L. D. Julian, J. S. Newcom, W. R. Roush, J. Am. Chem. Soc. 2005, 127, 6186-6187, which is hereby incorporated by reference in its entirety), which provides a pH in the range of 4-5 when run on the 0.1 mmole scale in anhydrous acetonitrile, was most successfully utilized for this transformation. Even with this approach, however, it is important to adjust the pH of the post-reaction medium (as readily followed by TLC) to pH 7-8 by addition of triethylamine so as to avoid decomposition during subsequent workup. Final compounds are obtained in the range of ca. 65-70% yields. Assignment of stereochemistry for these final materials can be accomplished with NMR and CD. In addition, at this point it is convenient to take advantage of chiral HPLC wherein authentic materials from natural sources can be used as standards along with the synthesized racemic materials.

For the compound `CC1(C)C=Cc2c(ccc3c2OC[C@@]2(O)c4ccc(O)cc4O[C@@H]32)O1` [7 (−), Glyceollin I (Natural Glyceollin I)], in the data set “ABTS antioxidant assay”, the “Trolox Equivalents (μmol/μmol)” value is on record as 1.8 ± 0.1 μmol/μmol. Besides, the IC50 in the data set “ABTS antioxidant assay” came out at 5.3 ± 0.3 µM; in data set [1], 1.4 µM. Moreover, in data set [2] (at 10-25 μM), the “anti-estrogenic activity (ERE-Luciferase)” value is listed as “only anti-estrogenic activity”. The GI50 in the data set on MCF7 cells came out at 12 µM; in the data set on MCF12A cells it was 25 µM; in the data set with NCI/ADR-RES cells it was 27 µM.
As to `CC1(C)C=Cc2c(ccc3c2OCC2(O)c4ccc(O)cc4OC32)O1` (racemic) [racemic (±)-GLY I, (+) Glyceollin I (Racemic Glyceollin I)], the half-maximal inhibitory concentration (IC50) in data set [1] worked out at 1.4 µM. Moreover, the “anti-estrogenic activity (ERE-Luciferase)” value in data set [2] (at 10 μM, E2 at 100 pM) is given as “strong anti-estrogenic activity”. Further, the “estrogenic activity (ERE-Luciferase)” value in data set [2] (concentration not given) is listed as “no significant estrogenic activity”. Also, the “stability of ring system (HPLC)” value is reported as “reasonable stability” in data set [3] (acidic pH as low as 4) and “not stable” in data set [3] (basic pH above 8).
In the case of `CC1(C)C=Cc2c(ccc3c2OC[C@]2(O)c4ccc(O)cc4O[C@H]32)O1` [7 (+), (+) Glyceollin I (Unnatural Glyceollin I)], in the data set “ABTS antioxidant assay”, the “Trolox Equivalents (μmol/μmol)” value turned out to be 1.8 ± 0.1 μmol/μmol. Also, the IC50 in the data set “ABTS antioxidant assay” was found to be 5.2 ± 0.3 µM; in data set [1], 1.4 µM. For the same compound, the “estrogenic activity (ERE-Luciferase)” value in data set [2] (at 10-25 μM) is reported as “modest estrogenic activity”. The “anti-estrogenic effects (ERE-Luciferase)” value in data set [2] (concentration not given) is listed as “only slight anti-estrogenic effects”. In addition, the values for the GI50 with MCF7 cells, in the data set with MCF12A cells and in the data set on NCI/ADR-RES cells were 21 µM, 31 µM and 38 µM, respectively.

The values are drawn from patent publication US8563599B2, “Methods for synthesizing glycinols, glyceollins I and II, compositions of selected intermediates, and therapeutic uses thereof” (The United States of America, represented by the Secretary …, priority 2008, dated 2013).
